The results in this text go back to patent publication US11696913B2, “Prolonged ectoparasite-controlling agent for animal” (MITSUI CHEMICALS AGRO, INC., priority 2017, dated 2023).

A value given as a limit tells only on which side of the number the result lay.

For assay [1], the system named is Ctenocephalides felis. Description: In vitro contact test with fleas. The following applies: read-out: insecticidal activity; for pest or weed control at 0.2 µg/cm2, 0.2 µg/cm2: dose 0.2 μg/cm^2, dead or moribund fleas after 48 h; for pest or weed control at 1 µg/cm2, 1 µg/cm2: dose 1 μg/cm^2, dead or moribund fleas after 48 h; for pest or weed control at 0.04 µg/cm2, 0.04 µg/cm2: dose 0.04 μg/cm^2, dead or moribund fleas after 48 h. The essentials:
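Activity is the percentage of fleas dead or moribund at 48 h, judged by immobility or uncoordinated movement after tapping. Tubes were coated by evaporating acetone solutions (900 ppm gives 5 μg/cm^2), then held 5-10 adult fleas of both sexes at room temperature and ambient humidity.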

In a further assay the test system is Amblyomma americanum. Description: In vitro contact test with hard ticks (Amblyomma americanum nymphs). The following applies: read-out: acaricidal activity; for pest or weed control at 0.2 µg/cm2, 0.2 µg/cm2: dose 0.2 μg/cm^2, 48 h; for pest or weed control at 1 µg/cm2, 1 µg/cm2: dose 1 μg/cm^2, 48 h. The essentials:
(§1)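 Acaricidal activity = % ticks dead or moribund after 48 h contact with acetone-deposited compound on vial walls (e.g., 900 ppm solution → 5 μg/cm^2). Ambient conditions for R. sanguineus, 21° C./85% rel. hum. for other species; heat challenge at 45-50° C. separated climbers from moribund ticks.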

Another assay has as its system Dermacentor variabilis. Description: In vitro contact test with adult hard ticks (Dermacentor variabilis). The following applies: read-out: acaricidal activity; for pest or weed control at 1 µg/cm2, 1 µg/cm2: dose 1 μg/cm^2, 48 h; for pest or weed control at 0.2 µg/cm2, 0.2 µg/cm2: dose 0.2 μg/cm^2, 48 h. Put shortly:
as §1

In another assay the test system is Rhipicephalus sanguineus. Description: In vitro contact test with adult hard ticks (Rhipicephalus sanguineus). The following applies: read-out: acaricidal activity; for pest or weed control at 0.2 µg/cm2, 0.2 µg/cm2: dose 0.2 μg/cm^2, 48 h; for pest or weed control at 1 µg/cm2, 1 µg/cm2: dose 1 μg/cm^2, 48 h. The essentials: as §1
The test system of assay [2] is Rhipicephalus (Boophilus) microplus. Briefly: In vitro injection test with Rhipicephalus (Boophilus) microplus (BOOPMI Inj). The following applies: 168 h, laid fertile eggs after 7 days, read-out: acaricidal activity; for pest or weed control at 32 ng: dose 0.032 μg/animal injected; for pest or weed control at 0.00016 mg: dose 0.16 μg/animal injected; for pest or weed control at 0.0008 mg: dose 0.8 μg/animal injected. Put shortly:
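Five engorged adult females each get a 1 μl abdominal injection of compound dissolved and diluted in DMSO. Kept 7 days at 28° C./85% rel. hum.; percent activity rates egg laying and egg fertility (0% all fertile, 100% none laid or infertile).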

Assay [3] relates to Ctenocephalides felis. Description: Ctenocephalides felis in-vitro feeding test with fleas (CTECFE oral). The following applies: 48 hours, read-out: insecticidal feeding activity; for pest or weed control at 0.16 ppm: dose 0.16 ppm in citrated cattle blood; for pest or weed control at 0.8 ppm: dose 0.8 ppm in citrated cattle blood; for pest or weed control at 4 ppm: dose 4 ppm in citrated cattle blood. Put shortly:
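Scored as percent fleas killed (0–100%) 48 hours after feeding began. Compound, dissolved in DMSO and diluted into citrated cattle blood, was offered via a parafilm membrane to roughly 20 adult male and female C. felis at about 37° C.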

The subject of another assay is Spodoptera litura. Briefly: Insecticidal testing against common cutworm. In kind it is in vivo. The following applies: foliar, 144 h, concentration 100 ppm, cabbage leaf dip, second-stage larvae, after 6 days, read-out: pesticidal rate. An excerpt:
Insecticidal Testing Against Common Cutworm (Spodoptera litura)

In another assay the test system is Plutella xylostella. Description: Insecticidal testing against diamondback moth. The class given is in vivo. The following applies: foliar, 144 h, concentration 100 ppm, cabbage leaf dip, third-stage larvae, after 6 days, read-out: pesticidal rate. An excerpt:
Insecticidal Testing Against Diamondback Moth (Plutella xylostella)

For another assay, the system named is Laodelphax striatellus. Description: Insecticidal testing against small brown planthopper. In kind it is in vivo. Particulars: 144 h, concentration 100 ppm, sprayed rice seedlings, after 6 days, read-out: pesticidal rate. The essentials: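 Acetone solution of compound at a set concentration sprayed onto rice seedlings, air-dried, then exposed to 10 planthoppers (one group). Held at 25° C; survival rate recorded after 6 days.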

Consider `CN(C(=O)c1ccc(Cl)cc1)c1cccc(C(=O)Nc2c(I)cc(C(F)(C(F)(F)F)C(F)(F)F)cc2C(F)(F)F)c1F` [Compound 60], for which, in the assay on Ctenocephalides felis [1], the pest or weed control at 0.2 µg/cm2, 0.2 µg/cm2 came to 95% and the pest or weed control at 1 µg/cm2, 1 µg/cm2 turned out to be 95%. For the same compound, in the assay with Amblyomma americanum, the pest or weed control at 0.2 µg/cm2, 0.2 µg/cm2 amounted to 90% and the pest or weed control at 1 µg/cm2, 1 µg/cm2 was found to be 90%. Besides, the pest or weed control at 1 µg/cm2, 1 µg/cm2 with Dermacentor variabilis worked out at 90%. Further, in the assay on Rhipicephalus sanguineus, the pest or weed control at 0.2 µg/cm2, 0.2 µg/cm2 was found to be 90% and the pest or weed control at 1 µg/cm2, 1 µg/cm2 was determined as 90%. For the same compound, in [2], the pest or weed control at 32 ng amounted to 100%, the pest or weed control at 0.00016 mg worked out at 100% and the pest or weed control at 0.0008 mg amounted to 100%. In the assay with Ctenocephalides felis [3], the pest or weed control at 0.16 ppm stood at 95%, the pest or weed control at 0.8 ppm came out at 95% and the pest or weed control at 4 ppm came to 95%. Moreover, the pest or weed control at 100 ppm in the assay on Spodoptera litura is at least 70%. In addition, the pest or weed control at 100 ppm with Plutella xylostella is at least 70%. Moreover, the pest or weed control at 100 ppm in the assay with Laodelphax striatellus was at least 70%.
Regarding `CN(C(=O)c1ccc(F)cc1)c1cccc(C(=O)Nc2c(Br)cc(C(F)(C(F)(F)F)C(F)(F)C(F)(F)F)cc2OC(F)(F)F)c1F` (stereo not shown) [Compound 94], in the assay on Amblyomma americanum, the pest or weed control at 0.2 µg/cm2, 0.2 µg/cm2 came to 90% and the pest or weed control at 1 µg/cm2, 1 µg/cm2 is 90%. The pest or weed control at 1 µg/cm2, 1 µg/cm2 in the assay on Dermacentor variabilis stood at 90%. For the same compound, in the assay on Rhipicephalus sanguineus, the pest or weed control at 0.2 µg/cm2, 0.2 µg/cm2 was 90% and the pest or weed control at 1 µg/cm2, 1 µg/cm2 stood at 90%. Also, the pest or weed control at 6.4 ng in [2] (dose 0.0064 μg/animal injected) turned out to be 100%. For the same compound, in assay [2], the pest or weed control at 32 ng was found to be 100%, the pest or weed control at 0.00016 mg was determined as 100% and the pest or weed control at 0.0008 mg came out at 100%. In the assay on Ctenocephalides felis [3] (dose 0.032 ppm in citrated cattle blood), the pest or weed control at 0.032 ppm stood at 95%. In the assay with Ctenocephalides felis [3], the pest or weed control at 0.16 ppm was 95%, the pest or weed control at 0.8 ppm worked out at 95% and the pest or weed control at 4 ppm came out at 95%. In the assay on Spodoptera litura, the pest or weed control at 100 ppm was at least 70%. For the same compound, the pest or weed control at 100 ppm in the assay on Plutella xylostella was at least 70%. In addition, in the assay with Laodelphax striatellus, the pest or weed control at 100 ppm was at least 70%.
Regarding `CN(C(=O)c1ccc(C#N)nc1)c1cccc(C(=O)Nc2c(I)cc(C(F)(C(F)(F)F)C(F)(F)F)cc2C(F)(F)F)c1F` [Compound 57], in the assay on Ctenocephalides felis [1], the pest or weed control at 0.04 µg/cm2, 0.04 µg/cm2 was 95%; the pest or weed control at 0.2 µg/cm2, 0.2 µg/cm2 stood at 95%; the pest or weed control at 1 µg/cm2, 1 µg/cm2 is 95%. In addition, in the assay on Amblyomma americanum, the pest or weed control at 1 µg/cm2, 1 µg/cm2 was 90%. In the assay on Dermacentor variabilis, the pest or weed control at 0.2 µg/cm2, 0.2 µg/cm2 amounted to 90% and the pest or weed control at 1 µg/cm2, 1 µg/cm2 stood at 90%. In addition, in the assay with Rhipicephalus sanguineus, the pest or weed control at 0.2 µg/cm2, 0.2 µg/cm2 was 90% and the pest or weed control at 1 µg/cm2, 1 µg/cm2 came to 90%. In assay [2], the pest or weed control at 32 ng amounted to 100%, the pest or weed control at 0.00016 mg stood at 100% and the pest or weed control at 0.0008 mg was determined as 100%. Moreover, in the assay with Ctenocephalides felis [3], the pest or weed control at 0.16 ppm came out at 95%, the pest or weed control at 0.8 ppm stood at 95% and the pest or weed control at 4 ppm is 95%. In the assay with Spodoptera litura, the pest or weed control at 100 ppm is at least 70%. In addition, in the assay with Plutella xylostella, the pest or weed control at 100 ppm is at least 70%. Moreover, the pest or weed control at 100 ppm with Laodelphax striatellus is at least 70%.
Turning to `CN(C(=O)c1ccc(F)c(F)c1)c1cccc(C(=O)Nc2c(I)cc(C(F)(C(F)(F)F)C(F)(F)C(F)(F)F)cc2C(F)(F)F)c1F` (stereo not shown) [Compound 77], the pest or weed control at 0.2 µg/cm2, 0.2 µg/cm2 came to 95% with Ctenocephalides felis [1] and 90% with Dermacentor variabilis. For the same compound, the pest or weed control at 1 µg/cm2, 1 µg/cm2 with Ctenocephalides felis [1] stood at 95%; in the assay with Amblyomma americanum, 90%; in the assay with Dermacentor variabilis, 90%; with Rhipicephalus sanguineus it was 90%. In addition, the pest or weed control at 32 ng in assay [2] worked out at 100%. Besides, the pest or weed control at 0.00016 mg in assay [2] was determined as 100%. Moreover, the pest or weed control at 0.0008 mg in assay [2] was found to be 100%. Also, the pest or weed control at 0.16 ppm in the assay with Ctenocephalides felis [3] amounted to 95%. Besides, in the assay on Ctenocephalides felis [3], the pest or weed control at 0.8 ppm amounted to 95%. For the same compound, the pest or weed control at 4 ppm with Ctenocephalides felis [3] was found to be 95%. Besides, the pest or weed control at 100 ppm in the assay with Spodoptera litura, in the assay with Plutella xylostella and in the assay with Laodelphax striatellus was at least 70% in each case.
As to `CN(C(=O)c1ccc(F)c(F)c1)c1cccc(C(=O)Nc2c(Br)cc(C(F)(C(F)(F)F)C(F)(F)F)cc2OC(F)(F)F)c1F` [Compound 100], in the assay with Ctenocephalides felis [1], the pest or weed control at 0.04 µg/cm2, 0.04 µg/cm2 was determined as 95%; the pest or weed control at 0.2 µg/cm2, 0.2 µg/cm2 was 95%; the pest or weed control at 1 µg/cm2, 1 µg/cm2 stood at 95%. In the assay on Amblyomma americanum, the pest or weed control at 0.2 µg/cm2, 0.2 µg/cm2 was determined as 90% and the pest or weed control at 1 µg/cm2, 1 µg/cm2 came out at 90%. Further, in the assay with Dermacentor variabilis, the pest or weed control at 0.2 µg/cm2, 0.2 µg/cm2 came out at 90% and the pest or weed control at 1 µg/cm2, 1 µg/cm2 came to 90%. The pest or weed control at 1 µg/cm2, 1 µg/cm2 in the assay with Rhipicephalus sanguineus stood at 90%. Besides, in assay [2], the pest or weed control at 0.00016 mg is 100% and the pest or weed control at 0.0008 mg worked out at 100%. Further, in the assay with Ctenocephalides felis [3], the pest or weed control at 0.16 ppm came to 95%, the pest or weed control at 0.8 ppm was determined as 95% and the pest or weed control at 4 ppm was 95%. The pest or weed control at 100 ppm with Spodoptera litura is at least 70%. Besides, the pest or weed control at 100 ppm with Plutella xylostella is at least 70%. In the assay on Laodelphax striatellus, the pest or weed control at 100 ppm is at least 70%.
In the case of `O=C(Nc1cccc(C(=O)Nc2c(I)cc(C(F)(C(F)(F)F)C(F)(F)C(F)(F)F)cc2C(F)(F)F)c1F)c1ccc(Cl)c(Cl)c1` (stereo not shown) [Compound 76], the pest or weed control at 1 µg/cm2, 1 µg/cm2 with Amblyomma americanum, with Dermacentor variabilis and in the assay on Rhipicephalus sanguineus was 90% in each case. In addition, the pest or weed control at 0.2 µg/cm2, 0.2 µg/cm2 with Dermacentor variabilis and with Rhipicephalus sanguineus was 90% throughout. Besides, in the assay on Rhipicephalus sanguineus (dose 0.04 μg/cm^2, 48 h), the pest or weed control at 0.04 µg/cm2, 0.04 µg/cm2 turned out to be 90%. Besides, the pest or weed control at 0.00016 mg in [2] came out at 100%. In assay [2], the pest or weed control at 0.0008 mg came to 100%. In addition, the pest or weed control at 0.8 ppm with Ctenocephalides felis [3] came out at 95%. In the assay on Ctenocephalides felis [3], the pest or weed control at 4 ppm worked out at 95%. The pest or weed control at 100 ppm with Spodoptera litura, in the assay on Plutella xylostella and with Laodelphax striatellus was at least 70% throughout.
As for `COc1ccc(C(=O)N(C)c2cccc(C(=O)Nc3c(I)cc(C(F)(C(F)(F)F)C(F)(F)F)cc3C(F)(F)F)c2F)cc1` [Compound 62], in the assay on Ctenocephalides felis [1], the pest or weed control at 0.2 µg/cm2, 0.2 µg/cm2 came out at 95%. For the same compound, the pest or weed control at 1 µg/cm2, 1 µg/cm2 is 95% in the assay with Ctenocephalides felis [1], 90% with Amblyomma americanum, 90% in the assay with Dermacentor variabilis and 90% with Rhipicephalus sanguineus. For the same compound, the pest or weed control at 0.00016 mg in assay [2] is 100%. Further, in assay [2], the pest or weed control at 0.0008 mg was determined as 100%. The pest or weed control at 0.16 ppm with Ctenocephalides felis [3] was 95%. For the same compound, in the assay with Ctenocephalides felis [3], the pest or weed control at 0.8 ppm was 95%. Moreover, the pest or weed control at 4 ppm in the assay on Ctenocephalides felis [3] is 95%. The pest or weed control at 100 ppm with Spodoptera litura, in the assay on Plutella xylostella and in the assay on Laodelphax striatellus was at least 70% each time.
